Experimental findings from patent US20250255293A1, “TISSUE DECONTAMINATION AND PRESERVATION SYSTEM” (priority 2024, published 2025) are described below.

The subject of the experiment is clinically relevant bacterial species. The experiment can be described thus: Quantitative microbial culture of osteoarticular fracture fragments (Example 5). In kind it is cell-based, Roseomonas sp, Methylobacterium sp. To be noted: for decontamination of osteoarticular tissues based on quantitative microbial tissue cultures (in words): days 7 and 14 of MOPS storage. The protocol: Skeletally mature purpose-bred research hounds (n=16) were humanely euthanized for purposes unrelated to the present study. Immediately following euthanasia, each dog was positioned in sternal recumbency with one forelimb extended and secured in a custom-made positioning apparatus. Fur was not clipped and no aseptic preparation or decontamination techniques were performed. Using a validated technique, a penetrating captive bolt stunner pistol (CASH Special, FRONTMATEC, Birmingham, United Kingdom) with a 1.25 grain cartridge was centered on the cranial (anterior) aspect of the distal humerus, immediately proximal to the elbow joint and with firm pressure against the secured elbow, the pistol was discharged, creating type 3 open distal humeral fractures. After the fractures were induced and radiographs obtained, the skin and soft tissues were aseptically removed. For each elbow (n=32), osteoarticular tissues were obtained from the distal humerus, proximal radius and proximal ulna such that 96 contaminated, devascularized, osteoarticular fracture fragments were randomly allocated to undergo treatment using one of the following protocols for comparison: 1)⋅Betadine (n=42): bulb irrigation using 1 L of 0.9% saline, followed by immersion in 10% povidone-iodine solution for 20 min, followed by bulb irrigation using 1 L of 0.9% saline; 2)⋅Chlorhexidine (n=42): bulb irrigation using 1 L of 0.9% saline, followed by immersion in 0.002% chlorhexidine gluconate solution immersion for 20 min, followed by bulb irrigation using 1 L of 0.9% saline; and 3)⋅Injured Control (n=12): no decontamination treatment. Each fragment was then immediately placed in 200 ml of Missouri Osteochondral Preservation System (MOPS®) solution in individual sterile closed containers, transported to the on-site laboratory and placed in a dedicated storage cabinet in standard room temperature and humidity conditions for 7 or 14 days.
Microbial Cultures. At days 7 (n=21) or 14 (n=21) of storage, osteoarticular fracture fragments were also collected and processed for quantitative microbial culture. […] Microorganism cultures were quantified using Colony-Forming Unit (CFU) counts per milliliter of broth. […] Post incubation, the number of colonies formed on each plate was counted. The number of CFUs per milliliter (CFU/ml) was calculated using the formula: CFU/ml=(number of colonies×dilution factor)/volume inoculated. […]
Statistical Analysis. All data were analyzed using statistical software R Studio, version 4.3.1 (Posit Software, Boston, MA, USA). Descriptive statistics for VCD, % VCD and CFU were calculated to report means, standard deviations, ranges and percentages. […]

Consider `[H]/N=C(\N/C(=N/[H])NCCCCCCNC(=N)NC(=N)Nc1ccc(Cl)cc1)Nc1ccc(Cl)cc1` [Chlorhexidine, chlorhexidine gluconate], for which the “decontamination of osteoarticular tissues based on quantitative microbial tissue cultures (in words)” value (“decontamination” below) was “effective at decontamination”. Moreover, the “CFUs for clinically relevant bacterial species” value (days 7 and 14) was “No CFUs”. Where the note is “listed as chlorhexidine”, the “decontamination” value is “effectively decontaminated”. For the setting “listed as chlorhexidine gluconate”, the “decontamination” value is given as “effective for decontaminating”.
